Data taken from patent US12122781B2, “Hydrates of polymorphs of 6-(1H-indazol-6-yl)-N-(4-morpholinophenyl)-2,3-dihydroimidazo[1,2-a]pyrazin-8-amine bis-mesylate as Syk inhibitors” (Kronos Bio, Inc., priority 2017, dated 2024).

How the values were obtained:
Format in all cases: physicochemical
[1] = XRPD analysis of the sample after the DVS experiment (solid form stability to humidity); conditions: after DVS cycle 5% RH to 95% RH and back at 25° C.
Description: X-ray powder diffraction (XRPD) analysis was conducted on a diffractometer (PANalytical XPERT-PRO, PANalytical B. V., Almelo, Netherlands) using copper radiation (Cu Kα, λ=1.541874). Samples were spread evenly on a zero background sample plate. The generator was operated at a voltage of 45 kV and amperage of 40 mA. Slits were Soller 0.02 rad, antiscatter 1.0°, and divergence. Scans were performed from 2 to 40° 2θ with a 0.0167 step size. Data analysis was performed using X′Pert Data Viewer V1.2d (PANalytical B. V., Almelo, Netherlands).
(§1) Hygroscopicity was studied using dynamic vapor sorption (DVS, TA Q5000 SA, TA Instruments, New Castle, DE or DVS, DVS Intrinsic, Surface Measurement Systems, London, UK). A sample (2-20 mg) was placed in an aluminum DVS pan and loaded on the sample side of the twin pan balance. The water sorption and desorption were studied as a function of relative humidity (RH) at 25° C. In 10% RH increments, the relative humidity was increased from 5% RH to 95% RH and then decreased back to 5%. […] Data analysis was performed using Universal Analysis 2000 Version 4.7A (TA Instruments, New Castle, DE) for TA DVS runs and Microsoft Excel for SMS DVS runs.

[2] = Hygroscopicity by dynamic vapor sorption (DVS); conditions: up to 95% RH at 25° C.; bis-mesylate
Description: as §1

[3] = Solid form stability at ambient conditions; conditions: before KF could be run

SMILES | solid form found by XRPD after the DVS experiment [1] | water absorbed (dynamic vapor sorption) [2] | stability of the polymorphic form at ambient conditions [3]
C1=C(c2ccc3cn[nH]c3c2)N=C(Nc2ccc(N3CCOCC3)cc2)C2=NCCN12.CS(=O)(=O)O.CS(=O)(=O)O [Form VI, 6-(1H-indazol-6-yl)-N-(4-morpholinophenyl)-2,3-dihydroimidazo[1,2-a]pyrazin-8-amine bis-mesylate] | converted to Form VII | ~17 wt. % | 
C1=C(c2ccc3cn[nH]c3c2)N=C(Nc2ccc(N3CCOCC3)cc2)C2=NCCN12.CS(=O)(=O)O.CS(=O)(=O)O [Amorphous form, 6-(1H-indazol-6-yl)-N-(4-morpholinophenyl)-2,3-dihydroimidazo[1,2-a]pyrazin-8-amine bis-mesylate] | converted to Form VII | about 38 wt. % | 
C1=C(c2ccc3cn[nH]c3c2)N=C(Nc2ccc(N3CCOCC3)cc2)C2=NCCN12.CS(=O)(=O)O.CS(=O)(=O)O [Form I, 6-(1H-indazol-6-yl)-N-(4-morpholinophenyl)-2,3-dihydroimidazo[1,2-a]pyrazin-8-amine bis-mesylate] | converted to Form VII | about 30 wt. % | 
C1=C(c2ccc3cn[nH]c3c2)N=C(Nc2ccc(N3CCOCC3)cc2)C2=NCCN12.CS(=O)(=O)O.CS(=O)(=O)O [Form XIII, 6-(1H-indazol-6-yl)-N-(4-morpholinophenyl)-2,3-dihydroimidazo[1,2-a]pyrazin-8-amine bis-mesylate] | converted to Form VII | ~25 wt. % | unstable at ambient conditions
C1=C(c2ccc3cn[nH]c3c2)N=C(Nc2ccc(N3CCOCC3)cc2)C2=NCCN12.CS(=O)(=O)O.CS(=O)(=O)O [Form II, 6-(1H-indazol-6-yl)-N-(4-morpholinophenyl)-2,3-dihydroimidazo[1,2-a]pyrazin-8-amine bis-mesylate] | converted to Form VII | about 30 wt. % | 

Results, then the compound that gave them:

solid form found by XRPD after the DVS experiment [1] | water absorbed (dynamic vapor sorption) [2] | stability of the polymorphic form at ambient conditions [3] | SMILES
converted to Form VII |  |  | C1=C(c2ccc3cn[nH]c3c2)N=C(Nc2ccc(N3CCOCC3)cc2)C2=NCCN12.CS(=O)(=O)O.CS(=O)(=O)O [Form XVIII, 6-(1H-indazol-6-yl)-N-(4-morpholinophenyl)-2,3-dihydroimidazo[1,2-a]pyrazin-8-amine bis-mesylate]
converted to Form VII | about 35 wt. % |  | C1=C(c2ccc3cn[nH]c3c2)N=C(Nc2ccc(N3CCOCC3)cc2)C2=NCCN12.CS(=O)(=O)O.CS(=O)(=O)O [Form XIV, 6-(1H-indazol-6-yl)-N-(4-morpholinophenyl)-2,3-dihydroimidazo[1,2-a]pyrazin-8-amine bis-mesylate]
converted to Form VII | about 28 wt. % |  | C1=C(c2ccc3cn[nH]c3c2)N=C(Nc2ccc(N3CCOCC3)cc2)C2=NCCN12.CS(=O)(=O)O.CS(=O)(=O)O [Form XIX, 6-(1H-indazol-6-yl)-N-(4-morpholinophenyl)-2,3-dihydroimidazo[1,2-a]pyrazin-8-amine bis-mesylate]
converted to Form VII | ~28 wt. % |  | C1=C(c2ccc3cn[nH]c3c2)N=C(Nc2ccc(N3CCOCC3)cc2)C2=NCCN12.CS(=O)(=O)O.CS(=O)(=O)O [Form XVI, 6-(1H-indazol-6-yl)-N-(4-morpholinophenyl)-2,3-dihydroimidazo[1,2-a]pyrazin-8-amine bis-mesylate]
converted to Form VII | ~23 wt. % |  | C1=C(c2ccc3cn[nH]c3c2)N=C(Nc2ccc(N3CCOCC3)cc2)C2=NCCN12.CS(=O)(=O)O.CS(=O)(=O)O [Form XV, 6-(1H-indazol-6-yl)-N-(4-morpholinophenyl)-2,3-dihydroimidazo[1,2-a]pyrazin-8-amine bis-mesylate]
